In patent US11427596B2, “Metal-free solvent-free synthesis of fused-pyrido heterocycles and biomedical applications” (Indian Institute of Technology Indore, priority 2019, dated 2022):

System: Mycobacterium bovis
Format: cell-based
Settings: virulent/opportunistic multidrug resistant Mycobacterium bovis (BCG), incubation 48 hrs, n=3

Cc1ccc(-c2nc(COCc3cn(CCN4C(=O)C(=O)c5ccccc54)nn3)cc3oc(C)cc23)o1 [compound 26, 1-(2-(4-(((2-Methyl-4-(5-methylfuran-2-yl)furo[3,2-c]pyridin-6-yl)methoxy)methyl)-1H-1,2,3-triazol-1-yl)ethyl)indoline-2,3-dione]
concentration range in which active (antituberculosis activity): 70 to 100 µM
